Key:
[1] = target: T1, human recombinant Casein kinase 18 (CK1δ) (Homo sapiens, UniProt P48730); experiment: Kinase inhibition assay (HotSpot, Reaction Biology Corp), CK1δ; assay type: biochemical; conditions: 10 μM ATP, 10-dose IC50 mode; read-out: Compound IC50 (M) CK1δ
T1 construct: purchased Reaction Biology Corp

[2] = tested on: TGF-β-induced IL-11 in primary human parenchymal fibroblast cells (pFbs); experiment: Human parenchymal fibroblast cell assay, TGF-β-induced IL-11 (ELISA); assay type: cell-based; conditions: compounds 0.1-10 μM 30 min prior to TGF-β1, 16-24 hours, 4.00* is assigned to compounds that failed to cause 50% or more inhibition at 10 µM, read-out: pIC50 IL-11 suppression (converted)
Procedure: Human Parenchymal Fibroblast Cell Assay
Primary human parenchymal fibroblast cells (pFbs) were cultured from parenchyma of lung resection specimens and from non-transplanted lungs of donors without chronic respiratory disease. pFbs were passaged in Dulbecco's Modified Eagle's Media (DMEM) containing 10% (v/v) heat-inactivated fetal calf serum (FCS), 15 mM HEPES, 0.2% (v/v) sodium bicarbonate, 2 mM L-glutamine, 1% (v/v) non-essential amino acids, 1% (v/v) sodium pyruvate, 2.5 μg/mL amphotericin, 5 IU/mL penicillin and 50 μg/mL streptomycin. In some experiments the human lung fibroblast cell line, MRC5 (sourced from ATTC) was used as indicated. The MRC5 line was maintained under the same conditions as described for the pFb.
Prior to experimentation, pFb were incubated in serum-free DMEM containing 0.25% bovine serum albumin (BSA) and insulin-transferrin-selenium-containing supplement (Monomed A; CSL, Parkville, Melbourne, Australia). The cells were incubated with small molecular CK1δ inhibitors (0.1-10 μM) for 30 min prior to […] TGF-β1 (R&D Systems, Minneapolis, Minn.) and the incubation continued for 16-24 hours prior to harvest of supernatant for detection of immunoreactive IL-11. Stock solutions were made as 10 mM in 100% DMSO and diluted to the required concentration in medium containing 0.1% DMSO (final concentration).
Supernatants were collected for measurement of IL-11 (R&D DuoSet, DY218) by ELISA following the manufacturers' instructions. Generally, capture antibodies were initially diluted to the recommended concentrations using PBS buffer, and then used to coat the wells of 96-well microplates (Greiner, #655061) by adding 50 μL/well and incubated overnight at room temperature. Next day, solutions were discarded and wells were washed 3 times with wash buffer (PBS containing 0.1% (v/v) Tween-20) prior to the addition of 200 μL of blocking solution (PBS containing 1% (v/v) BSA) for 1 hour to block non-specific sites. Plates were then washed 3 times with wash buffer and 50 μL of samples or standards were then added to wells and incubated for 2 hours at room temperature. After the incubation, plates were washed 3 times with wash buffer and 50 μL of detection antibodies were added to wells and incubated for 2 hours at room temperature. Plates were then washed 3 times before adding streptavidin-conjugated horseradish peroxidase (at the recommended concentrations) for 45 min. Plates were then washed 5 times with wash buffer and 100 μL TMB substrate solution (equal parts A and B, BD Biosciences) was added to each well until sufficient signals emerged. The reactions were inactivated by adding 100 μL sulphuric acid (2M H2SO4). The absorbance was measured at 450 nm using the Multiskan Ascent® plate reader. The absorbance of the cytokine standards was fitted to a logistic equation, allowing the concentrations of cytokine in samples to be determined.
PIC50 values (the negative log of the concentration suppressing IL-11 level by 50%) for inhibition of TGF-β-induced IL-11 were interpolated from the linear regression of log concentration small molecule versus IL-11 level (Table 4 and FIG. 2).

T1 sequence (P48730 whole entry): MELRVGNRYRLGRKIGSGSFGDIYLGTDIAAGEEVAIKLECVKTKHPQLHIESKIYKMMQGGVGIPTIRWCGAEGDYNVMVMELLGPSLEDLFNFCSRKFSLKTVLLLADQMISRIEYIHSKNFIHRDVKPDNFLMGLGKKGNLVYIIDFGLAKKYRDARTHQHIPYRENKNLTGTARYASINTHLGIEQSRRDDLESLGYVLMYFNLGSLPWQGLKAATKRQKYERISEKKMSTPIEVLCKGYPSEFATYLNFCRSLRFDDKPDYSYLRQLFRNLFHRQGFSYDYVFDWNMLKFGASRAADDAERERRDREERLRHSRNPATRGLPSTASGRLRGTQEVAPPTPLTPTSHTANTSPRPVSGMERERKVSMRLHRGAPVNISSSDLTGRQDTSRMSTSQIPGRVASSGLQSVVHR

`Nc1nccc(-c2c(-c3ccc(F)cc3)ncn2C2CCC(F)(F)CC2)n1` [ZH3-138, 4-(1-(4,4-Difluorocyclohexyl)-4-(4-fluorophenyl)-1H-imidazol-5-yl)pyrimidin-2-amine] gave an IC50 [1] of 9.32e-09 M and an IC50 [2] of 20 µM.

— patent US20220281846A1, “COMPOUNDS AND COMPOSITIONS FOR THE TREATMENT OF RESPIRATORY DISEASES” (THE UNIVERSITY OF MELBOURNE, priority 2018, published 2022)
